Test results from patent US9394295B2, “Antibacterial homopiperidinyl substituted 3,4-dihydro-1H-[1,8]naphthyridinones” (Janssen Sciences Ireland UC, priority 2011, dated 2016).
In brackets after ≈: the same amount, converted by molar mass. Where two headings read alike, the source gives them in different places.

Legend:
[1] = tested on: Staphylococcus aureus ATCC 29213; assay: Antibacterial susceptibility testing: IC90 determination (STA); assay type: cell-based; details: ATCC29213, S. aureus ATCC 29213, 90% inhibitory concentration for bacterial growth, read-out: STA (361.159) IC90
Experimental: (§1) The following bacteria were used: Staphylococcus aureus ATCC 29213, methicillin-resistant Staphylococcus aureus (MRSA) ATCC 700788 and Escherichia coli ATCC 35218. The bacteria used in this study were grown overnight in flasks containing 100 ml Mueller-Hinton broth (Difco cat. nr. 0757-17) in sterile de-ionized water, with shaking, at 37° C. Stocks were store at −70° C. until use.
(§2) Bacteria were incubated on a tryptic soy agar plate containing 5% sheep blood (Becton Dickinson cat. nr. 254053) for 18-24 hours at 35° C. in aerobic conditions (first passage). For the second passage, fresh Mueller-Hinton broth is inoculated with 5-10 colonies and grown overnight at 35° C. until turbidity (reaching log-phase) in aerobic conditions is reached. The bacterial suspension is then adjusted to 0.5 McFarland density and further diluted 1:100 in Mueller Hinton broth medium. This is used as inoculum.
(§3) MIC assays were performed by the broth microdilution method in a 96-well format (flat-bottom microtitre plates) with a final volume of 0.1 ml Mueller Hinton broth containing two-fold serial dilutions of compounds and inoculated with 5×10^5 CFU/ml of bacteria (standard inoculum size according to CLSI guidelines). Inhibitors are typically varied over the range of 63 to 0.49 μM. The final DMSO concentration in the assay was 1.25% (maximum tolerable DMSO concentration=6%). In the assays where the effect of human serum on the activity of the compounds against S. aureus was tested, human serum was added at a final concentration of 10%. The plates were incubated at 35° C. for 16-20 hours. At the end of incubation the bacterial growth was quantified fluorometrically. For this, resazurin was added to all wells and the plates were re-incubated. The incubation time is dependent on the type of bacteria. A change in color from blue to pink indicated the growth of bacteria. The fluorescence was read in computer-controlled fluorometer (Fluoroskan Ascent FL, Labsystems) at an excitation wavelength 540 nm and an emission wavelength of 590 nm. The % growth inhibition achieved by the compounds was calculated according to standard methods. The IC90 (expressed in μg/ml) was defined as the 90% inhibitory concentration for bacterial growth. A panel of reference compounds were simultaneously tested for QC approval.

[2] = tested on: S. aureus; assay: Antibacterial susceptibility testing: IC90 determination with 10% human serum (STA + 10% HS); assay type: cell-based; details: Staphylococcus aureus; S. aureus with human serum at final concentration of 10%; read-out: STA + 10% HS (361.169) IC90
Experimental: as §1, §2, §3
The results are depicted in the table D2 below (STA+10% HS).

[3] = Thermodynamic solubility / solubility in aqueous solution; assay type: physicochemical; details: thermodynamic from solid, 4 days at ambient temperature
Experimental: The pH solubility profiling was carried out at ambient temperature for a period of 4 days. A saturation solubility study was carried out in order to determine maximum solubility in a particular buffer solution. The compound was added to respective buffer solution until saturation point is reached. This was followed by shaking the flask for 4 days at ambient temperature. After 4 days, the solutions were filtered and injected on UPLC and the concentration was determined using a generic HPLC method.

[4] = tested on: S. aureus ATCC 29213; assay: MIC broth microdilution (CLSI), S. aureus ATCC 29213; assay type: cell-based; details: Staphylococcus aureus, ATCC 29213 / MSSA, reference strain MSSA
Experimental: (§4) Minimum Inhibitory Concentrations (MICs) were determined in accordance with the Clinical and Laboratory Standards Institute (CLSI) methodology against aerobic bacteria (CLSI M07-A8) (see Clinical and Laboratory Standards Institute. 2009. Methods for dilution antimicrobial susceptibility tests for bacteria that grow aerobically. CLSI document M07-A8, Vol. 29, No. 2.) by the broth microdilution method with cation-adjusted Mueller-Hinton broth (CA-MHB) medium for the majority of organisms, except for Haemophilus influenza, where Haemophilis test medium (HTM) broth was used. Descriptions of the individual organisms can be found in the table. Where possible, ATCC standard strains were tested.
(§5) The inoculum density for the susceptibility testing was standardized to give a final inoculum of approximately 5×10^5 CFU/mL.
(§6) Stock solutions of the compounds were prepared in DMSO at concentrations of 1 mg/mL. Linezolid was prepared in DMSO at a concentration of 2 mg/mL. Stock solutions of all compounds were diluted into CA-MHB to give a range of two-fold dilutions, depending upon the sensitivity of the organism being tested.

[5] = tested on: S. aureus ATCC 43300; assay: MIC broth microdilution (CLSI), S. aureus ATCC 43300; assay type: cell-based; details: Staphylococcus aureus, ATCC 43300 / MRSA, reference strain MRSA
Experimental: as §4, §5, §6

[6] = tested on: S. aureus NRS119; assay: MIC broth microdilution (CLSI), S. aureus NRS119; assay type: cell-based; details: Staphylococcus aureus, LZD-R
Experimental: as §4, §5, §6

[7] = tested on: S. aureus NRS120; assay: MIC broth microdilution (CLSI), S. aureus NRS120; assay type: cell-based; details: Staphylococcus aureus, LZD-R
Experimental: as §4, §5, §6

[8] = tested on: S. aureus NRS121; assay: MIC broth microdilution (CLSI), S. aureus NRS121; assay type: cell-based; details: Staphylococcus aureus, LZD-R
Experimental: as §4, §5, §6

[9] = tested on: E. coli tolC mutant; assay: MIC broth microdilution (CLSI), E. coli tolC mutant; assay type: cell-based; details: Escherichia coli
Experimental: as §4, §5, §6

[10] = tested on: E. coli ATCC 25922; assay: MIC broth microdilution (CLSI), E. coli ATCC 25922; assay type: cell-based; details: Escherichia coli, ATCC25922
Experimental: as §4, §5, §6

[11] = aqueous buffer, Buffer pH 2, read-out: Solubility, Buffer pH 2
[12] = aqueous buffer, Buffer pH 4, read-out: Solubility, Buffer pH 4
[13] = aqueous buffer, Buffer pH 7.4, read-out: Solubility, Buffer pH 7.4
[14] = aqueous with cosolvent or surfactant or cyclodextrin, 10% HP-β-CD buffer pH 4, read-out: Solubility, 10% HP-β-CD buffer pH 4
[15] = aqueous with cosolvent or surfactant or cyclodextrin, 10% HP-β-CD buffer pH 7.4, read-out: Solubility, 10% HP-β-CD buffer pH 7.4
[16] = aqueous with cosolvent or surfactant or cyclodextrin, 20% HP-β-CD buffer pH 4, read-out: Solubility, 20% HP-β-CD buffer pH 4
[17] = aqueous with cosolvent or surfactant or cyclodextrin, 20% HP-β-CD buffer pH 7.4, read-out: Solubility, 20% HP-β-CD buffer pH 7.4

SMILES | IC90 [1] [µg/mL] | IC90 [2] [µg/mL] | solubility at 4 days [3, 11] [µg/mL] | solubility at 4 days [3, 12] [µg/mL] | solubility at 4 days [3, 13] [µg/mL] | solubility at 4 days [3, 14] [µg/mL] | solubility at 4 days [3, 15] [µg/mL] | solubility at 4 days [3, 16] [µg/mL] | solubility at 4 days [3, 17] [µg/mL] | MIC90 [4] [µg/mL] | MIC90 [5] [µg/mL] | MIC90 [6] [µg/mL] | MIC90 [7] [µg/mL] | MIC90 [8] [µg/mL] | MIC90 [9] [µg/mL] | MIC90 [10] [µg/mL]
O=C1CCc2cc(/C=C/C(=O)N3CCC=C(c4ccccc4)CC3)cnc2N1 [Co. No. 2] | 0.14 (≈ 0.375 µM) | 0.33 | 2 (≈ 5.36 µM) | < 2 | 3 (≈ 8.03 µM) | 1150 (≈ 3080 µM) | 1080 (≈ 2900 µM) | 980 (≈ 2620 µM) | 1050 (≈ 2820 µM) | 0.06 (≈ 0.161 µM) | 0.06 (≈ 0.161 µM) | 0.125 (≈ 0.335 µM) | 0.06 (≈ 0.161 µM) | 0.125 (≈ 0.335 µM) | 0.25 (≈ 0.669 µM) | > 32
COc1ccc(F)cc1C1=CCCN(C(=O)/C=C/c2cnc3c(c2)CCC(=O)N3)CC1 [Co. No. 27] | 0.1 (≈ 0.237 µM) | 0.33 | < 10 | < 10 | < 10 | 220 (≈ 522 µM) | 250 (≈ 593 µM) | 440 (≈ 1040 µM) | 590 (≈ 1400 µM) | 0.06 (≈ 0.142 µM) | 0.06 (≈ 0.142 µM) | 0.06 (≈ 0.142 µM) | 0.125 (≈ 0.297 µM) | 0.06 (≈ 0.142 µM) | > 8 | > 8
